From paper PMC10108353, “Design and Pharmacological Characterization of α4β1 Integrin Cyclopeptide Agonists: Computational Investigation of Ligand Determinants for Agonism versus Antagonism” (Journal of Medicinal Chemistry, 2023)
Starred links: 1 amine or outer side, 2 acyl side, 3 side chain; linkers in the order of their positions; H or OH if unused. Positions of bridges follow the written chain, without caps; N, C: chain ends. Non-standard residues stand in square brackets, D forms with d. Residues, ends and D or L forms follow the SMILES beside them. Groups on a side chain read outwards from the residue. *: point of attachment. Phe(4-NH2) = Nc1ccc(C[C@H](N)C(=O)O)cc1; X1 = O=C(Cc1ccc(N[*:1])cc1)[*:2]; NH(2-Me-phenyl) = Cc1ccccc1N*; CO = O=C([*:1])[*:2]

Legend:
[1] = test system: ERK1/2 phosphorylation mediated by α4β1 integrin; assay: ERK1/2 phosphorylation in Jurkat E6.1 cells (Western blot); type: cell-based; conditions: compound 10^–7 to 10^–9 M, no FN, vs vehicle
Description: Intracellular signaling generated by the interaction of ECM components with α4β1 integrin produces an increase in the phosphorylation of cytoplasmatic second messengers such as ERK1/2 that contribute to α4 integrin-mediated cell functions.
Western blot analysis was performed as previously described, with the following modifications. […] On the other hand, after 1 h incubation with integrin antagonists, the cells were then seeded on FN (10 μg/mL) coated plates for 1 h. Integrin agonists were not incubated with FN. At the end of the incubation time, Jurkat E6.1 cells were lysed on ice using a mammalian protein extraction reagent (M-PER; Pierce, Rockford, IL) supplemented with a phosphatase inhibitor cocktail. Protein extracts were quantified using a BCA protein assay kit (Pierce), separated by 12% SDS-PAGE gel, transferred onto nitrocellulose membranes, and immunoblotted with anti-phospho-ERK1/2 (1:1000) (Cell Signaling Technology, Danvers, MA) or anti-total ERK1/2 antibodies (1:2500) (Cell Signaling Technology). Protocols for digital image acquisition and analysis have been previously described.[73] Densitometric analysis of the bands is reported (mean ± SD; n = 3); the amount of phosphorylated ERK1/2 (pERK1/2) is normalized to that of total ERK1/2 (totERK1/2). Experiments were replicated independently at least three times. Statistical analyses were performed using one-way ANOVA and the post hoc Newman–Keuls test.

α4β1 integrin [2] = target: T1, α4β1 integrin (Homo sapiens, UniProt P05556+P13612); assay: Jurkat E6.1 cell adhesion to FN; conditions: agonist = adhesion index >1, antagonist = adhesion index <1
T1 sequence (P05556 21-798, one chain of several): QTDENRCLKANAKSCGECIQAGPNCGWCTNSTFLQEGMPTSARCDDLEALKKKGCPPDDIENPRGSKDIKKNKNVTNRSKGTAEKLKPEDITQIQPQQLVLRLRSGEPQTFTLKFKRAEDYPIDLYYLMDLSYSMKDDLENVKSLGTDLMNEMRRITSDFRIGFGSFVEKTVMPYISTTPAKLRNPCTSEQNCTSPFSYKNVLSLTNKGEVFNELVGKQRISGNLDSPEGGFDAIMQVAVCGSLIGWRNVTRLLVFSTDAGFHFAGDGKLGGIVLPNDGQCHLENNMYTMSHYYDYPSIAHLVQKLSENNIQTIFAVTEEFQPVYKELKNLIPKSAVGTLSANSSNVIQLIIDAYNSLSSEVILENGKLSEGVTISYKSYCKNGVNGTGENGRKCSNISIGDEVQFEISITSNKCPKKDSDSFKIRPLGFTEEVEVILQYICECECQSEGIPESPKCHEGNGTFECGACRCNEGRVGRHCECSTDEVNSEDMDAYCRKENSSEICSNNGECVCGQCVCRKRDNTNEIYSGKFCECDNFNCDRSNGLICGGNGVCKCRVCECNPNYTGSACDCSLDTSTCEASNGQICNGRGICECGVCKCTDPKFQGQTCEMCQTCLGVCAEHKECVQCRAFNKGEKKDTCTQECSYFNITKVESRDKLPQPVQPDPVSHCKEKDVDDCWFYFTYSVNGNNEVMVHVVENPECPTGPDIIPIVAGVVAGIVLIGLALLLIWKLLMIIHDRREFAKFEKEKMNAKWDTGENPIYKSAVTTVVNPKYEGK
Description: (§1) Cells were seeded in 96-well plates coated with the specific natural human recombinant ligands (Table 1) and allowed to adhere in the presence of increasing concentrations (10^–10 to 10^–4 M) of the synthesized CPPs before the determination of the number of adherent cells (as described in Experimental Section).
(§2) For adhesion assays on Jurkat E6.1, RPMI8866, or HL60 cells, black 96-well plates were coated overnight at 4 °C with VCAM-1 or ICAM-1 or MAdCAM-1 (5 μg/mL) or Fg (10 μg/mL). The cells were counted, stained with CellTracker green CMFDA (12.5 μM, 30 min at 37 °C, Life Technologies), and after three washes, were preincubated with increasing concentrations of new CPP (10^–10 to 10^–4 M) or with the vehicle (methanol) for 30 min at 37 °C. Then cells were plated (500 000/well) on coated wells and incubated for 30 min at 37 °C. After three washes, adhered cells were lysed with 0.5% Triton X-100 in PBS (30 min at 4 °C) and fluorescence was measured (Ex485 nm/Em535 nm) in an EnSpire Multimode Plate Reader (PerkinElmer, Waltham, MA). For adhesion assays mediated by α5β1 integrin, 96-well plates were coated by passive adsorption with FN (10 μg/mL) overnight at 4 °C. K562 cells were counted and preincubated with various concentrations of the peptides or with the vehicle (methanol) for 30 min at RT. Afterward, the cells were plated (50 000 cells/well) and incubated at RT for 1 h. The wells were then washed with 1% BSA in PBS (phosphate-buffered saline) to take off nonadherent cells, and 50 μL of hexosaminidase substrate was added; after addition of 100 μL of stopping solution, the plates were read at 405 nm. In both types of adhesion assay, the number of adherent cells was determined by comparison with a standard curve made in the same plate. Experiments were carried out in quadruplicate and repeated at least three times.
(§3) Jurkat E6.1 (expressing α4β1 and αLβ2 integrin), K562 (expressing α5β1 integrin) and HL60 (expressing αMβ2 integrin) cell lines were purchased from ATCC (Rockville, MD, USA); these cells were routinely cultured in RPMI-1640 (Life Technologies) supplemented with glutamine and 10% FBS.
(§4) Cells were grown at 37 °C under 5% CO2 humidified atmosphere.

α4β7 integrin = target: T2, α4β7 integrin (Homo sapiens, UniProt P13612+P26010); assay: cell-based; type: cell-based; conditions: for agonist or antagonist behaviour, MAdCAM-1/RPMI8866 α4β7: agonist = adhesion index >1, antagonist = adhesion index <1
T2 construct: RPMI8866 cells expressing α4β7 integrin to the ligand MAdCAM-1; endogenous in cells; host or cells: RPMI8866
T2 sequence (P13612 34-1032): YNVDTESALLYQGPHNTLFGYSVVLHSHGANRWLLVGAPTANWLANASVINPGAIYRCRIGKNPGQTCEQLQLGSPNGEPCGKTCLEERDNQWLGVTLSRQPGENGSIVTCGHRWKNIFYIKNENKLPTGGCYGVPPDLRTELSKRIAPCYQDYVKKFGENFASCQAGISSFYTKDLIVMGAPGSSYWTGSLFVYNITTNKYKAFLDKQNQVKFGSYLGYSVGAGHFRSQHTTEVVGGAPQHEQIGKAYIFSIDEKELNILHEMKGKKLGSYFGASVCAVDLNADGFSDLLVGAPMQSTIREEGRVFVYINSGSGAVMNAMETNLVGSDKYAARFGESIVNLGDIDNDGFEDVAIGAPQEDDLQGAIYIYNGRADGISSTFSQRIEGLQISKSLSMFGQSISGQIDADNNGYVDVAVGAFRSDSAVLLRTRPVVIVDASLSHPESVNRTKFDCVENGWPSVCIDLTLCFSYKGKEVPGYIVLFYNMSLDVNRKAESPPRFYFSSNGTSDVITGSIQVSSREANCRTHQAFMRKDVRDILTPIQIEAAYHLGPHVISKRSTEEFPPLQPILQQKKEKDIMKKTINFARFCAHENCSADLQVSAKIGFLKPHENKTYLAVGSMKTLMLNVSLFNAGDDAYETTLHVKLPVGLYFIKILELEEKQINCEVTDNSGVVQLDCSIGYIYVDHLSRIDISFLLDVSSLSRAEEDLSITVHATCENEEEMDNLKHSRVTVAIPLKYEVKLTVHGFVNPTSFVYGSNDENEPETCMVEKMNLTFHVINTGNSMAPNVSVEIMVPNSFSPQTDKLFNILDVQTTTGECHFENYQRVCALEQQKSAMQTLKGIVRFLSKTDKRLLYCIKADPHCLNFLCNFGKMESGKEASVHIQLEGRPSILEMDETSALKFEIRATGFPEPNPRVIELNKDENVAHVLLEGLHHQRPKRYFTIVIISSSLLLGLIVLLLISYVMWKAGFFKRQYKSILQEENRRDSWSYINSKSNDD
T2 sequence (P26010 20-798): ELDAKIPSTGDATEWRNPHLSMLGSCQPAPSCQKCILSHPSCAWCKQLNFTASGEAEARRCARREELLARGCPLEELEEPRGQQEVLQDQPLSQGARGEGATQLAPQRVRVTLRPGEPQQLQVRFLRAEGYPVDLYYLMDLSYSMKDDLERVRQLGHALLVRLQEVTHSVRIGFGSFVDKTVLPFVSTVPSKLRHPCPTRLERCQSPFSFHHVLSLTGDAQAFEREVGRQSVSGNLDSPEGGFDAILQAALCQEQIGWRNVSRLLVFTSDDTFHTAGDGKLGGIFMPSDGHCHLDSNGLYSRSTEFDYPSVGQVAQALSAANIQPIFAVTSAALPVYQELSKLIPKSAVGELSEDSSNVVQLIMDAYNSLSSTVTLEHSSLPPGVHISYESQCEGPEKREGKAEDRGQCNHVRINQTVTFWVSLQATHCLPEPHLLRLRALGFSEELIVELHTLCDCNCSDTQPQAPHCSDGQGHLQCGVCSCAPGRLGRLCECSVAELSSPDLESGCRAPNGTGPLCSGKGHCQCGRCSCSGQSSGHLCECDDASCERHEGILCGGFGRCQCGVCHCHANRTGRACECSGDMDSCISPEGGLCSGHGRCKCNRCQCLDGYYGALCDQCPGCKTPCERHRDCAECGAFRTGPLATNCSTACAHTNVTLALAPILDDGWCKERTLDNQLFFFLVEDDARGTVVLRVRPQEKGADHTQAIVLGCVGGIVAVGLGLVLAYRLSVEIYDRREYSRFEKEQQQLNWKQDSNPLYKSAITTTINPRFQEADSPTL
Text: mediated Jurkat cell adhesion to FN.

α4β1 integrin [3] = target: T1, α4β1 integrin; assay: Jurkat E6.1 cell adhesion to VCAM-1; conditions: agonist = adhesion index >1, antagonist = adhesion index <1
Description: as §1, §2, §3, §4

αLβ2 integrin = αLβ2 integrin (Homo sapiens, UniProt P05107+P20701); assay: Jurkat E6.1 cell adhesion to ICAM-1
αLβ2 integrin, sequence (P20701 26-1170): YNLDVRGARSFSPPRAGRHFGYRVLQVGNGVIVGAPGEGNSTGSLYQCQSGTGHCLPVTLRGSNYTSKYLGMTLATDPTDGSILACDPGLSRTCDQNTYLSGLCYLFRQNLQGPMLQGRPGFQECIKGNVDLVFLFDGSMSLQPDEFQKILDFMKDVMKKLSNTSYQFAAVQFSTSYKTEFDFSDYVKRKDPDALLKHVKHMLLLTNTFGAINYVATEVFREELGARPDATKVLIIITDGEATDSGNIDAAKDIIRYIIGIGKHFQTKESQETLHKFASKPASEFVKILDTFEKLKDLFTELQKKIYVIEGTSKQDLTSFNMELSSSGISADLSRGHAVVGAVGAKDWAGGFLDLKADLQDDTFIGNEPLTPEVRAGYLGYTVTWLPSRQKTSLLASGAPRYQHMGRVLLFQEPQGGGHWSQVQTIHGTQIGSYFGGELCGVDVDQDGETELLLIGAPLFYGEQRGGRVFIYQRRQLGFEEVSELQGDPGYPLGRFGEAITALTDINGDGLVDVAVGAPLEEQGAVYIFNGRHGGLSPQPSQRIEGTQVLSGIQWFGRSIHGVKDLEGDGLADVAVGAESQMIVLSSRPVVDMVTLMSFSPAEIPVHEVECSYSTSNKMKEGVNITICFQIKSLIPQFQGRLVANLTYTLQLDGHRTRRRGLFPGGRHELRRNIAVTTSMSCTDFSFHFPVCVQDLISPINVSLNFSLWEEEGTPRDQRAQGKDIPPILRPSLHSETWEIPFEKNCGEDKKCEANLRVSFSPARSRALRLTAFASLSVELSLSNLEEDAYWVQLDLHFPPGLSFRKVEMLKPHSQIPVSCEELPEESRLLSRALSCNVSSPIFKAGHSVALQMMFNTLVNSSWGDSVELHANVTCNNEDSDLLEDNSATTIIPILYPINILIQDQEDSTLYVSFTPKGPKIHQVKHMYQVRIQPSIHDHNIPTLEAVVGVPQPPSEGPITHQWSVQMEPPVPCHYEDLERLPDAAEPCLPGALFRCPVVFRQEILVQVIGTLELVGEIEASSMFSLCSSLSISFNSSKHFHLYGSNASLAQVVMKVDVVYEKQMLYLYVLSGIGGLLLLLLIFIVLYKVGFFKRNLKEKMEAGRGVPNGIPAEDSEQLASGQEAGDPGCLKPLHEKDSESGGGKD
αLβ2 integrin, sequence (P05107 23-769): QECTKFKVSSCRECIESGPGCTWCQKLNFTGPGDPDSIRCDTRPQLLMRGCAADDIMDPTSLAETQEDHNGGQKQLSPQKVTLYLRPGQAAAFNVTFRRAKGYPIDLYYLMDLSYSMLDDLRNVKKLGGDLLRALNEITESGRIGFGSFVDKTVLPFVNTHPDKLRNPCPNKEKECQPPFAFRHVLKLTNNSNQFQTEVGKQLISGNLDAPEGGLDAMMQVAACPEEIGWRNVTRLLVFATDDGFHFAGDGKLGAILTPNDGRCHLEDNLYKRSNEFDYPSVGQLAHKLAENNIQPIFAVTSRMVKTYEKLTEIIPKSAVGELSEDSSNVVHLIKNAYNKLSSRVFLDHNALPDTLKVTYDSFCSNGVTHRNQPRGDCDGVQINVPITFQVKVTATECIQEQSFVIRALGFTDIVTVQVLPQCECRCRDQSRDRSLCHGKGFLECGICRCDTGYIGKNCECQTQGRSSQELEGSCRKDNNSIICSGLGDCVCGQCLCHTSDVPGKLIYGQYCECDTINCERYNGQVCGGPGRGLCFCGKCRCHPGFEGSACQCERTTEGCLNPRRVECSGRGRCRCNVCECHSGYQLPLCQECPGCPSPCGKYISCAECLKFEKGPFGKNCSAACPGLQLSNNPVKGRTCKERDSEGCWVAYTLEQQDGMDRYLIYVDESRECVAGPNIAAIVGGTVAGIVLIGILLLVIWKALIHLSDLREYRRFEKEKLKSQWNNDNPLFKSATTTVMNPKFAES
Description: as §1
For adhesion assays on Jurkat E6.1, RPMI8866, or HL60 cells, black 96-well plates were coated overnight at 4 °C with VCAM-1 or ICAM-1 or MAdCAM-1 (5 μg/mL) or Fg (10 μg/mL). The cells were counted, stained with CellTracker green CMFDA (12.5 μM, 30 min at 37 °C, Life Technologies), and after three washes, were preincubated with increasing concentrations of new CPP (10^–10 to 10^–4 M) or with the vehicle (methanol) for 30 min at 37 °C. […] After three washes, adhered cells were lysed with 0.5% Triton X-100 in PBS (30 min at 4 °C) and fluorescence was measured (Ex485 nm/Em535 nm) in an EnSpire Multimode Plate Reader (PerkinElmer, Waltham, MA). […] K562 cells were counted and preincubated with various concentrations of the peptides or with the vehicle (methanol) for 30 min at RT. […] The wells were then washed with 1% BSA in PBS (phosphate-buffered saline) to take off nonadherent cells, and 50 μL of hexosaminidase substrate was added; after addition of 100 μL of stopping solution, the plates were read at 405 nm. […]

[4] = after 2 h, 37 °C, RP HPLC
Description: Enzymatic stability tests were carried out in triplicate and repeated three times using mouse serum (Sigma-Aldrich). Peptides was dissolved in Tris buffer pH 7.4 to a 10 mM concentration, and 10 mL aliquots were added to 190 mL of serum. Incubations were maintained at 37 °C, and 20 mL aliquots were sampled from the incubation mixtures at the indicated times of 0, 0.15, 0.5, 1.0, 2.0, and 3.0 h. Samples were diluted with 90 mL of CH3CN, and enzymatic activity was definitively stopped by adding 90 mL of 0.5% AcOH. After centrifugation (13 000g for 20 min), the supernatants were separated and the amount of remaining peptide was assessed by RP HPLC.

α4β1 integrin [5] = test system: α4β1 integrin; design: method as in PMID 23703610; conditions: low affinity agonist; cited from earlier work

SMILES	effect on ERK1/2 phosphorylation, compound administered alone [1]	agonist or antagonist behaviour, FN/Jurkat E6.1 α4β1 (α4β1 integrin [2])	agonist or antagonist behaviour, MAdCAM-1/RPMI8866 α4β7 (α4β7 integrin)	agonist or antagonist behaviour, VCAM-1/Jurkat E6.1 α4β1 (α4β1 integrin [3])	IC50 (αLβ2 integrin)	IC50 (α4β7 integrin)	stability in mouse serum [4]	IC50 (α4β1 integrin [5])
Cc1ccccc1NC(=O)Nc1ccc(C[C@@H]2NC(=O)C[C@@H](C(=O)O)NC(=O)[C@H](C(C)C)NC(=O)[C@H](CC(=O)O)NC(=O)[C@H](CC(C)C)NC2=O)cc1 [3a, c[(S)-Phu-Leu-Asp-Val-(S)-isoAsp]] ([Phe(4-NH2)]([CO-NH(2-Me-phenyl)])LDVD-OH; lactam N-5 (inferred))	significant concentration-dependent increase of ERK1/2 phosphorylation	agonist	agonist	agonist				
Cc1ccccc1NC(=O)Nc1ccc(C[C@@H]2NC(=O)C[C@@H](C(=O)O)NC(=O)[C@H](C(C)C)NC(=O)[C@H](C)NC(=O)[C@H](CC(C)C)NC2=O)cc1 [12a, c[(S)-Phu-Leu-Ala-Val-(S)-isoAsp]] ([Phe(4-NH2)]([CO-NH(2-Me-phenyl)])LAVD-OH; lactam N-5 (inferred))	significant concentration-dependent increase of ERK1/2 phosphorylation	agonist	completely lost activity	agonist	> 5 µM	> 5 µM		
Cc1ccccc1NC(=O)Nc1ccc(CC(=O)N[C@@H](CC(C)C)C(=O)N[C@@H](CC(=O)O)C(=O)N[C@H](C(=O)N2CCC[C@H]2C(=O)O)C(C)C)cc1 [BIO1211, MPUPA-LDVP-OH] ({NH(2-Me-phenyl)-CO}-[X1]LDVP-OH)			inactive				almost completely hydrolyzed	
CCCC[C@@H](COC(=O)N(Cc1cccs1)Cc1cccs1)NC(=O)N[C@@H](CC(=O)OC)c1ccc2c(c1)OCO2 [THI0019]								1000 to 2000 µM
